26 molecules from patent US9701689B2, “Substituted pyridines and pyridazines as CCR10 receptor inhibitors” (KYOWA HAKKO KIRIN CO., LTD., priority 2012, dated 2017) can be followed below.

SMILES strings stand for the structures.

The experiment deals with T1, human CCR10 (Homo sapiens, UniProt P46092).
T1 construct: expressed in transfected cells; host or cells: KJMGER8 cells (Namalwa cell-derived line), beta-estradiol-induced; hCCR10G16 cells
T1 sequence (P46092 1-362): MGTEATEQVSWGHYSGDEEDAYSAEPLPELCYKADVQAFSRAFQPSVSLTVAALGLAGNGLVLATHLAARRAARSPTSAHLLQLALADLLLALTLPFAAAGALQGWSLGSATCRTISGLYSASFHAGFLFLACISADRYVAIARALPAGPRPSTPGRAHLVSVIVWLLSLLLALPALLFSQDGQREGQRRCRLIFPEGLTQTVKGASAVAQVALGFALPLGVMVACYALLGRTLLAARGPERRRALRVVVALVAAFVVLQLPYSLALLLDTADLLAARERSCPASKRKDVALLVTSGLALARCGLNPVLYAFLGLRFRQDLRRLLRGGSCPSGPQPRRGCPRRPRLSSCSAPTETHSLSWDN
Nature of the experiment: CCR10 antagonistic effect: calcium assay of human CCR10 (CTACK-induced increase of intracellular calcium in hCCR10G16 cells). Conditions: at a concentration of not more than 1000 nmol/L; human CCR10-expressing hCCR10G16 cells, 300 nmol/L CTACK added; read-out: inhibition of increase in the calcium ion concentration. The experiment is classed as cell-based. The essentials: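 Inhibition of CTACK-evoked calcium flux (max minus min Fluo-3 fluorescence over ~5 min, FDSS) was calculated against control in β-estradiol-induced human CCR10/Gα16 KJMGER8 cells, after 30 min compound preincubation at 37 °C; CTACK added from a 300 nmol/L solution.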
Background: Calcium flux is commonly read through the fluorescence of an indicator in the cells.

Turning to `Cc1cc(F)ccc1Nc1cc(S(=O)(=O)Nc2c(C)noc2C)ncc1C(=O)N1CCC(c2ccc(F)cc2)CC1` [Compound 151, N-(3,5-dimethylisoxazol-4-yl)-4-(4-fluoro-2-methylphenylamino)-5-[4-(4-fluorophenyl)piperidine-1-carbonyl]pyridine-2-sulfonamide], the inhibition at up to 1 µM was at least 50%. In the case of `Cc1cc(F)ccc1Nc1cc(S(=O)(=O)Nc2c(C)nn(C)c2C)ncc1C(=O)N1CCC(c2ccc(F)cc2)CC1` [Compound 152, 4-(4-fluoro-2-methylphenylamino)-5-[4-(4-fluorophenyl)piperidine-1-carbonyl]-N-(1,3,5-trimethyl-1H-pyrazol-4-yl)pyridine-2-sulfonamide], the inhibition at up to 1 µM is at least 50%. Consider `Cc1cc(F)ccc1Nc1cc(S(=O)(=O)Nc2ccn(C)n2)ncc1C(=O)N1CCC(c2ccc(F)cc2)CC1` [Compound 153, 4-(4-fluoro-2-methylphenylamino)-5-[4-(4-fluorophenyl)piperidine-1-carbonyl]-N-(1-methyl-1H-pyrazol-3-yl)pyridine-2-sulfonamide], for which the inhibition at up to 1 µM is at least 50%.

Take `Cc1cc(F)ccc1Nc1cc(S(=O)(=O)Nc2cscn2)ncc1C(=O)N1CCC(c2ccc(F)cc2)CC1` [Compound 154, 4-(4-fluoro-2-methylphenylamino)-5-[4-(4-fluorophenyl)piperidine-1-carbonyl]-N-(thiazol-4-yl)pyridine-2-sulfonamide]: the inhibition at up to 1 µM is at least 50%. Next, `Cc1cc(F)ccc1Nc1cc(S(=O)(=O)Nc2cncs2)ncc1C(=O)N1CCC(c2ccc(F)cc2)CC1` [Compound 155, 4-(4-fluoro-2-methylphenylamino)-5-[4-(4-fluorophenyl)piperidine-1-carbonyl]-N-(thiazol-5-yl)pyridine-2-sulfonamide]: at least 50%; `Cc1cc(F)ccc1Nc1cc(S(=O)(=O)Nc2cncnc2)ncc1C(=O)N1CCC(c2ccc(F)cc2)CC1` [Compound 156, 4-(4-fluoro-2-methylphenylamino)-5-[4-(4-fluorophenyl)piperidine-1-carbonyl]-N-(pyrimidin-5-yl)pyridine-2-sulfonamide]: at least 50%. The same measure for `Cc1cc(NS(=O)(=O)c2cc(Nc3ccc(F)cc3C)c(C(=O)N3CCC(c4ccc(F)cc4)CC3)cn2)no1` [Compound 157, 4-(4-fluoro-2-methylphenylamino)-5-[4-(4-fluorophenyl)piperidine-1-carbonyl]-N-(5-methylisoxazol-3-yl)pyridine-2-sulfonamide]: at least 50%.

Take `Cc1cc(F)ccc1Nc1cc(S(=O)(=O)Nc2onc(C)c2C)ncc1C(=O)N1CCC(c2ccc(F)cc2)CC1` [Compound 158, N-(3,4-dimethylisoxazol-5-yl)-4-(4-fluoro-2-methylphenylamino)-5-[4-(4-fluorophenyl)piperidine-1-carbonyl]pyridine-2-sulfonamide]: the inhibition at up to 1 µM is at least 50%.

Take `Cc1cc(F)ccc1Nc1cc(S(=O)(=O)Nc2cc(C(C)(C)C)on2)ncc1C(=O)N1CCC(c2ccc(F)cc2)CC1` [Compound 159, N-(5-tert-butylisoxazol-3-yl)-4-(4-fluoro-2-methylphenylamino)-5-[4-(4-fluorophenyl)piperidine-1-carbonyl]pyridine-2-sulfonamide]: the inhibition at up to 1 µM is at least 50%. Next, `Cc1cc(F)ccc1Nc1cc(S(=O)(=O)NC(=O)C2CC2)ncc1C(=O)N1CCC(c2ccc(F)cc2)CC1` [Compound 160, N-{4-(4-fluoro-2-methylphenylamino)-5-[4-(4-fluorophenyl)piperidine-1-carbonyl]pyridin-2-ylsulfonyl}cyclopropanecarboxamide]: at least 50%; `CCNC(=O)NS(=O)(=O)c1cc(Nc2cc(C)ccc2Cl)c(C(=O)N2CCC(c3ccc(F)cc3)CC2)cn1` [Compound 161, 4-(2-chloro-5-methylphenylamino)-N-(ethylcarbamoyl)-5-[4-(4-fluorophenyl)piperidine-1-carbonyl]pyridine-2-sulfonamide]: at least 50%. The same measure for `CCCNC(=O)NS(=O)(=O)c1cc(Nc2cc(C)ccc2Cl)c(C(=O)N2CCC(c3ccc(F)cc3)CC2)cn1` [Compound 162, 4-(2-chloro-5-methylphenylamino)-5-[4-(4-fluorophenyl)piperidine-1-carbonyl]-N-(propylcarbamoyl)pyridine-2-sulfonamide]: at least 50%. Next, `CCNC(=O)NS(=O)(=O)c1cc(NCc2ccccc2)c(C(=O)N2CCC(c3ccc(F)cc3)CC2)cn1` [Compound 163, 4-(benzylamino)-N-(ethylcarbamoyl)-5-[4-(4-fluorophenyl)piperidine-1-carbonyl]pyridine-2-sulfonamide]: at least 50%. For the molecule `CCNC(=O)NS(=O)(=O)c1cc(Nc2cc(C)c(Cl)cc2Cl)c(C(=O)N2CCC(c3ccc(F)cc3)CC2)cn1` [Compound 164, 4-(2,4-dichloro-5-methylphenylamino)-N-(ethylcarbamoyl)-5-[4-(4-fluorophenyl)piperidine-1-carbonyl]pyridine-2-sulfonamide], the inhibition at up to 1 µM is at least 50%.

Consider `CCCNC(=O)NS(=O)(=O)c1cc(Nc2cc(C)c(Cl)cc2Cl)c(C(=O)N2CCC(c3ccc(F)cc3)CC2)cn1` [Compound 165, 4-(2,4-dichloro-5-methylphenylamino)-5-[4-(4-fluorophenyl)piperidine-1-carbonyl]-N-(propylcarbamoyl)pyridine-2-sulfonamide], for which the inhibition at up to 1 µM is at least 50%. Next, `CCNC(=O)NS(=O)(=O)c1cc(Nc2cc(C)c(Cl)cc2C)c(C(=O)N2CCC(c3ccc(F)cc3)CC2)cn1` [Compound 166, 4-(4-chloro-2,5-dimethylphenylamino)-N-(ethylcarbamoyl)-5-[4-(4-fluorophenyl)piperidine-1-carbonyl]pyridine-2-sulfonamide]: at least 50%. The same measure for `CCCNC(=O)NS(=O)(=O)c1cc(Nc2cc(C)c(Cl)cc2C)c(C(=O)N2CCC(c3ccc(F)cc3)CC2)cn1` [Compound 167, 4-(4-chloro-2,5-dimethylphenylamino)-5-[4-(4-fluorophenyl)piperidine-1-carbonyl]-N-(propylcarbamoyl)pyridine-2-sulfonamide]: at least 50%. Next, `CCCNC(=O)NS(=O)(=O)c1cc(Nc2ccc(F)cc2C)c(C(=O)N2CCC(c3ccc(F)cc3)CC2)cn1` [Compound 168, 4-(4-fluoro-2-methylphenylamino)-5-[4-(4-fluorophenyl)piperidine-1-carbonyl]-N-(propylcarbamoyl)pyridine-2-sulfonamide]: at least 50%; `CCNC(=O)NS(=O)(=O)c1cc(Nc2ccc(Cl)cc2C)c(C(=O)N2CCC(c3ccc(F)cc3)CC2)cn1` [Compound 169, 4-(4-chloro-2-methylphenylamino)-N-(ethylcarbamoyl)-5-[4-(4-fluorophenyl)piperidine-1-carbonyl]pyridine-2-sulfonamide]: at least 50%; `CCCNC(=O)NS(=O)(=O)c1cc(Nc2ccc(Cl)cc2C)c(C(=O)N2CCC(c3ccc(F)cc3)CC2)cn1` [Compound 170, 4-(4-chloro-2-methylphenylamino)-5-[4-(4-fluorophenyl)piperidine-1-carbonyl]-N-(propylcarbamoyl)pyridine-2-sulfonamide]: at least 50%.

With `Cc1cc(F)ccc1Nc1cc(S(=O)(=O)NC(=O)NC(C)C)ncc1C(=O)N1CCC(c2ccc(F)cc2)CC1` [Compound 171, 4-(4-fluoro-2-methylphenylamino)-5-[4-(4-fluorophenyl)piperidine-1-carbonyl]-N-(isopropylcarbamoyl)pyridine-2-sulfonamide], the inhibition at up to 1 µM is at least 50%. Next, `Cc1cc(F)ccc1Nc1cc(S(=O)(=O)NC(=O)NC2CC2)ncc1C(=O)N1CCC(c2ccc(F)cc2)CC1` [Compound 172, N-(cyclopropylcarbamoyl)-4-(4-fluoro-2-methylphenylamino)-5-[4-(4-fluorophenyl)piperidine-1-carbonyl]pyridine-2-sulfonamide]: at least 50%; `CCOC(=O)NS(=O)(=O)c1cc(Nc2ccc(Cl)cc2C)c(C(=O)N2CCC(c3ccc(F)cc3)CC2)cn1` [Compound 173, ethyl 4-(4-chloro-2-methylphenylamino)-5-[4-(4-fluorophenyl)piperidine-1-carbonyl]pyridin-2-ylsulfonylcarbamate]: at least 50%; `CCOC(=O)NS(=O)(=O)c1cc(Nc2ccc(F)cc2C)c(C(=O)N2CCC(c3ccc(F)cc3)CC2)cn1` [Compound 174, ethyl 4-(4-fluoro-2-methylphenylamino)-5-[4-(4-fluorophenyl)piperidine-1-carbonyl]pyridin-2-ylsulfonylcarbamate]: at least 50%. The same measure for `Cc1cc(F)ccc1Nc1cc(S(=O)(=O)NC(=O)OC(C)C)ncc1C(=O)N1CCC(c2ccc(F)cc2)CC1` [Compound 175, isopropyl 4-(4-fluoro-2-methylphenylamino)-5-[4-(4-fluorophenyl)piperidine-1-carbonyl]pyridin-2-ylsulfonylcarbamate]: at least 50%; for `Cc1cc(Cl)ccc1Nc1c(C(=O)N2CCC(c3ccc(F)cc3)CC2)cnc(S(N)(=O)=O)c1Cl` [Compound 177, 3-chloro-4-(4-chloro-2-methylphenylamino)-5-[4-(4-fluorophenyl)piperidine-1-carbonyl]pyridine-2-sulfonamide]: at least 50%.
